Results reported in patent publication US20050239873A1 (priority 1999, published 2005).

Legend:
[1] = Stability in cell culture; format: in vitro ADME; details: HL-60 and RPMI-8226 cultures, 500 ng/ml
Experimental: HL60 and RPMI-8226 cells were maintained in cell culture medium in the presence or absence of 20% fetal bovine serum. 2-OMeA1 (500 ng/ml) was added to a culture containing 200,000 cells/ml, and to another flask containing only the medium. From the flasks, portions were removed at various times and, as appropriate, centrifuged to collect cells. Samples of cell-free medium, to which NaF/EDTA was added, were extracted. Collected cells were suspended in phosphate-buffered saline (PBS) containing NaF/EDTA, subjected to sonication, and then extracted and analyzed.

NCI-H929 = assay: Propidium iodide exclusion / flow cytometry cytotoxicity; format: cell-based, human; details: 5 to about 20 μg/ml
Experimental: (§1) Cell survival was assayed by exclusion of propidium iodide (PI; 10 μg/ml) by unfixed cells. Annexin V-FITC (Pharmingen) or 3, 3′-dihexyloxacarbocyanine iodide (DiOC6(3); Molecular Probes) staining was analyzed together with PI to discriminate early apoptotic cells. Apoptotic cells were also measured as sub-G1 events among ethanol-fixed cells stained with 10 μg/ml PI. All cell samples were analyzed using a benchtop FACSCalibur™ (Becton Dickinson, San Jose, Calif.). Flow data were analyzed using MultiCycle AV software (Phoenix Flow Systems). For intracellular pH measurements, cell pellets were washed once and resuspended in 2 ml of HEPES-buffered medium (no phenol red and no serum). Carboxy-SNARF-1-AM (Molecular Probes, 1 mM stock in DMSO, stored at −20° C.) was added to a final concentration of 10 μM, and the cells were incubated for 30 min at 37° C. Following incubation with SNARF, cells were sedimented and the pellets were held on ice. Immediately before analysis, pellets were resuspended in […] (HBSS; experimental buffer) or high-[K+] buffer containing nigericin (calibration samples).

U266 = assay: as above; format: cell-based, human; details: 5 to about 20 μg/ml
Experimental: as §1

[2] = test system: mitochondria from TABX2S cells; assay: Swelling of isolated mitochondria (absorbance at 540 nm); parameters: species or system murine; details: 2 μg/ml
Description: Mitochondrial PT is caused by opening of a large conductance channel in the inner mitochondrial membrane. Opening of a large conductance channel allows free distribution of solutes of less than 1,500 Da and results in dissipation of the proton gradient and osmotic swelling of mitochondria due to the higher solute concentration in the matrix. In isolated mitochondria, the colloid osmotic swelling associated with PT pore opening can be followed by measuring the optical density change at 540 nm (Kantrow et al., Biochem. Biophy. Res. Comm. 232:669-671, 1997).
Briefly, mitochondria were isolated from TABX2S cultured cells by a modification of the procedure of Maltese et al. (J. Biol. Chem. 260:11524-11529, 1985). Typically, 0.5 to 1×10^8 cells were harvested and washed once with homogenization buffer (250 mM sucrose, 10 mM Tris-HCl, 1 mM EDTA and 1 mg/ml BSA, (pH 7.4)). The cell suspension was exposed to nitrogen at 250 psi for 30 minutes in a “cell disruption bomb” (Parr, Moline, Ill.) or homogenized in a Dounce homogenizer with a loose-fitting pestle until >90% of cells were broken. The homogenate was centrifuged at 800×g for 10 minutes. The supernatant was removed and centrifuged at 10,000×g for 10 minutes at 4° C. The pellet was resuspended and again centrifuged at 10,000×g for 10 minutes. […]

[3] = test system: mitochondria from TABX1A cells; assay: as above; parameters: species or system murine; details: even at much higher concentrations
[4] = test system: myeloid leukemia cell lines; assay: Propidium iodide exclusion cytotoxicity; format: cell-based, human; details: 20 μg/ml, even after 48 h; seven or eight cell lines
Experimental: as §1

[5] = test system: leukemia and lymphoma cell lines (DHL4, Daudi, Ramos, Molt4 and Jurkat); assay: Propidium iodide exclusion cytotoxicity; format: cell-based, human; details: 5 to about 20 μg/ml
Experimental: as §1

[6] = test system: NB4, an acute promyelocytic cell line; assay: Propidium iodide exclusion cytotoxicity; format: cell-based, human
Experimental: as §1

[7] = test system: mitochondria from TABX2S cells; assay: Rhodamine 123 retention assay; parameters: species or system murine; details: five minutes after adding
Experimental: Rh-123 is a cationic lipid-soluble fluorescent dye that accumulates in mitochondria in proportion to the mitochondrial membrane potential. Mitochondria were isolated from TABX2S cells (over-expressing Bcl-xL) and from control cells, prepared as described in Example 2. The isolated mitochondria were loaded with Rh-123 by incubating with 10 μM Rh-123 for 30 minutes, washed and resuspended in buffer. […] Less than 40% of Rh-123 was retained in antimycin A-treated TABX2S mitochondria, compared with greater than 80% retained in control mitochondria.

[8] = test system: mitochondria with normal levels of Bcl-xL expression; assay: JC-1 membrane potential of isolated mitochondria; parameters: species or system murine
Experimental: Isolated mitochondria were loaded with JC-1 prior to treatment, and mitochondrial labeling was determined using FACS. […] Antimycin A-treated mitochondria with high levels of Bcl-xL had lower levels of JC-1 staining than parallel samples treated with CCCP. Uncoupled mitochondria still retain a significant Donnan potential because of trapped anionic species and it is likely that antimycin-induced PT and/or swelling of mitochondria led to a further reduction of this residual potential.
As observed for the parent compound, antimycin A3, mitochondria with normal levels of BCl-xL expression were not affected by the 2-methoxy analog.

RPMI-8226 cells = assay: Mitochondrial membrane potential (safranin O); format: cell-based, human
Experimental: RPMI-8226 cells (2×10^7) were resuspended in buffer containing 130 mM KCl, 5 mM malate, 5 mM glutamate, 2 mM KPO4, 5 mM HEPES, pH 7.0 with 5 μM safranin O dye, in a stirred cuvette at 28° C. Fluorescence was measured at 495 nm excitation, 586 nm emission on a RF-5301PC spectrofluorophotometer (Shimadzu, Japan). Safranin O fluorescence was quenched following addition of 0.0025% digitonin as the dye accumulates in active mitochondria (Fiskum et al., Methods Enzymol. 322:222-234, 2000). Depolarization of the mitochondrial inner membrane caused a shift of safranin O localization from mitochondria to cytoplasm, evident as increased fluorescence.

For `CCCCCC[C@H]1C(=O)O[C@H](C)[C@H](NC(=O)c2cccc(NC=O)c2OC)C(=O)O[C@@H](C)[C@@H]1OC(=O)CC(C)C` [2-OMeA1, 2-methoxy antimycin A1], the “stability in the medium from cell cultures” value [1] was “notably less stable in the absence of fetal bovine serum”.
With antimycin A the “sensitivity (PI exclusion)” value (NCI-H929) was “sensitive”, the “sensitivity (PI exclusion)” value (U266) was “sensitive” and the mitochondrial swelling [2] was “caused mitochondrial swelling”. For the same compound, the mitochondrial swelling [3] was “did not exhibit similar permeability changes and swelling”, the “sensitivity (PI exclusion)” value [4] was “resistant” and the “sensitivity (PI exclusion)” value [5] was “sensitive”. The “sensitivity (PI exclusion)” value [6] was “modestly antimycin-sensitive” and the Rh-123 retained [7] was “Less than 40%”.
With `CCCC[C@H]1C(=O)OC(C)[C@H](NC(=O)c2cccc(NC=O)c2OC)C(=O)O[C@@H](C)C1OC(=O)CC(C)C` (some centres unmarked) [2-OMeA3, Antimycin A3 methyl ether] the “mitochondrial depolarization (JC-1)” value [8] was “not affected”.
In the case of 2-methoxy antimycin A [2-OMeA], the “acute changes in mitochondrial membrane potential” value (RPMI-8226 cells) is reported as “No acute changes”.
